Data on 7 molecules can be found in BindingDB's records for doi:10.1021/jm800566m (Gsk, 2008).

The structures appear in SMILES notation.

The nature of this test: The assay uses purified baculovirus-expressed GST-VEGFR2 interacting with biotinylated peptide substrates. HTRF is based on the proximity of europium cryptate (donor fluorophore)-labeled antiphosphotyrosine and streptavidin labeled with APC (allophycocyanin), which have been brought together by a binding reaction. As to conditions: pH 7.5. A general note: TR-FRET usually uses a lanthanide donor and a delayed reading to cut background.
The IC50 is the point on the concentration scale where inhibition reaches its midpoint. Low values mean greater potency in that assay, high ones weaker potency in that assay. As to `Cc1nc2cc(N(C)c3ccnc(Nc4cccc(S(N)(=O)=O)c4)n3)ccc2n1C` [3-({4-[(1,2-dimethyl-1H-1,3-benzodiazol-5-yl)(methyl)amino]pyrimidin-2-yl}amino)benzene-1-sulfonamide], the IC50 came out at 17 nM.
With `Cc1nc2ccc(N(C)c3ccnc(Nc4cccc(S(N)(=O)=O)c4)n3)cc2n1C` [3-({4-[(1,2-dimethyl-1H-1,3-benzodiazol-6-yl)(methyl)amino]pyrimidin-2-yl}amino)benzene-1-sulfonamide], the IC50 stood at 63 nM.
Turning to `Cc1nn(C)c2cc(N(C)c3ccnc(Nc4cccc(S(N)(=O)=O)c4)n3)ccc12` [3-({4-[(1,3-dimethyl-1H-indazol-6-yl)(methyl)amino]pyrimidin-2-yl}amino)benzene-1-sulfonamide], the IC50 worked out at 36 nM.
In the case of `Cc1c2ccc(N(C)c3ccnc(Nc4cccc(S(N)(=O)=O)c4)n3)cc2nn1C` [3-({4-[(2,3-dimethyl-2H-indazol-6-yl)(methyl)amino]pyrimidin-2-yl}amino)benzene-1-sulfonamide], the IC50 worked out at 5.6 nM.
Regarding `Cc1c2ccc(N(C)c3ccnc(Nc4cccc(S(N)(=O)=O)c4)n3)cc2nn1Cc1ccccc1` [3-({4-[(2-benzyl-3-methyl-2H-indazol-6-yl)(methyl)amino]pyrimidin-2-yl}amino)benzene-1-sulfonamide], the IC50 was 2.6 nM. Compared with the last molecule, the IC50 is about 2.2-fold lower.
To `CN(c1ccc2cn(C)nc2c1)c1ccnc(Nc2cccc(S(N)(=O)=O)c2)n1` [3-({4-[methyl(2-methyl-2H-indazol-6-yl)amino]pyrimidin-2-yl}amino)benzene-1-sulfonamide] belongs 7.6 nM; to `Cc1n[nH]c2cc(N(C)c3ccnc(Nc4cccc(S(N)(=O)=O)c4)n3)ccc12` [3-({4-[methyl(3-methyl-1H-indazol-6-yl)amino]pyrimidin-2-yl}amino)benzene-1-sulfonamide], 0.6 nM.
